Test results published in patent US8927521B2, “Cyclic adenosine monophosphates for reducing the formation of adhesions” (University of Pittsburgh—of the Commonwealth System of …, priority 2008, dated 2015).
Where “and” joins values, the source holds several entries; their conditions need not be identical. Equal values may be shown once.

Tests used:
[1] = test system: post-surgical adhesion formation; assay: Post-surgical adhesion formation in mice, all groups co-treated with 1,3-dipropyl-8-(p-sulfophenyl)xanthine (Example 2); format: in vivo; settings: for adhesion score (mean±standard error of mean): scale 1 to 5; for adhesion scores (individual animals): one value per mouse
Procedure: (§1) This protocol examined the effects of several treatments on post-surgical adhesion formation. Six-week-old C57Bl mice were fasted overnight and then anesthetized the following day with an intraperitoneal injection of pentobarbital (50 mg/kg). The surgical procedures were conducted under aseptic conditions. The abdomen was shaved to remove hair, and the incision site was cleaned with betadine solution. Surgery was performed under a laminar flow hood using instruments sterilized in a glass bead sterilizer. The abdomen was opened via a midline incision of approximately 10 mm. The cecum was exposed and placed on sterile gauze. […] After 30 seconds, the ethanol was washed from the cecum surface with 1-ml of test solution. Next, the cecum was returned to the peritoneal cavity and placed in its natural position. Then 1-ml of test solution was placed in the peritoneal cavity, and the abdominal incision was repaired by suturing. […] The animals were placed under a warming lamp and observed until they regained consciousness. After regaining consciousness, the mice were placed back in the housing cage.
Ten days later, the animals were again anesthetized with pentobarbital, and the abdomen was surgically opened to provide a clear view of the intestines. The severity of adhesion formation was assessed on a semi-quantitative scale from 1 to 5, taking into account the extent of adhesion formation (with 1 being the least amount of adhesion formation and 5 being the most amount of adhesion formation). Adhesions were identified visually and by noting the difficulty of separating adjacent surfaces. Adhesion scores were assigned by an individual blinded to (that is unaware of) the test solutions used to treat the animals. The scoring was based on the extent of adhesion of the cecum to itself and to adjacent tissues or organs. A score of 1 was assigned to animals when there was only minimal (approximately >10 to <20%) adhesion of the cecum to itself (that is within the cecum core) with no adhesion of the cecum to other adjacent structures (abdominal wall, liver or intestines). A score of 2 was assigned when there was mild (approximately >20 to <30%) adhesion of the cecum to itself or when there was minimal (approximately >10 to <20%) adhesion of the cecum to itself but in addition minimal adhesion of the cecum to adjacent structures. A score of 3 was assigned to animals when the adhesion of the cecum to itself was moderate (approximately >30 to <50%), in the absence or presence of minimal adhesion of the cecum to adjacent structures. A score of 4 was assigned to animals when the adhesion of the cecum to itself was severe (approximately >60 to <80%) or when there was moderate adhesion to adjacent structures or both. A score of 5 was assigned to animals when adhesion of the cecum to itself was so extensive that it existed as one entity (complete adhesion within itself) or when there was severe adhesion of the cecum to itself but in addition severe adhesion of the cecum to adjacent structures.

[2] = test system: P1 adenosine receptor subtypes (A1, A2A, A2B and A3); settings: at 1 mM; cited from earlier work
[3] = test system: post-surgical adhesion formation; assay: Post-surgical abdominal adhesion formation after cecum injury in mice (Example 1); format: in vivo, C57Bl mice; settings: for adhesion score compared with saline control group or other treatments (Fisher's Least Significant Difference test): post-hoc analysis, Example 1; for adhesion score (mean±standard error of mean): 1 ml wash + 1 ml in peritoneal cavity, scored ten days later; for adhesion scores for all mice (individual animals): one value per mouse
Procedure: as §1, with “cage. Ten days later, the animals were again anesthetized with pentobarbital, and the abdomen was surgically opened to provide a clear view of the intestines. […] Adhesions were identified visually and by noting the difficulty of separating adjacent surfaces. Adhesion scores were assigned by an individual blinded to (that is unaware of) the test solutions used to treat the animals. The scoring was based on the extent of adhesion of the cecum to itself and to adjacent tissues or organs. […] In this example, there were six groups that were treated with test solutions containing chemical agents of interest. In addition, there was a seventh group (the control group) in which the test solution was only the vehicle in which the chemical agents of interest were dissolved. The vehicle for all six test solutions was 0.9% saline, so the seventh group (control group) received only 0.9% saline as the test solution.” for “cage.”

[4] = Description: However, there are serious limitations with regard to using adenosine for this purpose that preclude an optimal anti-adhesive efficacy. […] Dis Colon Rectum. […] Consequently the time-concentration profile of adenosine in the surgical field cannot be optimized.
[5] = scale 1 to 5, 75 millimoles/L in 0.9% saline

concentration of stable aqueous solutions (aqueous solubility) [4]	SMILES	efficacy in inhibiting formation of post-surgical abdominal adhesions (in words) ([3]; 75 millimoles/L)	adhesion score compared with saline control group or other treatments (Fisher's Least Significant Difference test) [3]	adhesion score (mean±standard error of mean) [3, 5]	further results
	CCCn1c(=O)c2[nH]c(-c3ccc(S(=O)(=O)O)cc3)nc2n(CCC)c1=O [1,3-dipropyl-8-(p-sulfophenyl)xanthine]				adhesion score (mean±standard error of mean) ([1]; 1,3-dipropyl-8-(p-sulfophenyl)xanthine 1 mM + saline only (group headed Saline)): 4.75±0.22; adhesion scores (individual animals) ([1]; 1,3-dipropyl-8-(p-sulfophenyl)xanthine 1 mM + saline only): 5 (3×) and 4; blockade of adenosine receptor subtypes [2]: blocks all four P1 adenosine receptor subtypes
	Nc1ncnc2c1ncn2[C@@H]1O[C@H](CO)[C@@H](O)[C@H]1OP(=O)(O)O [2′-adenosine monophosphate]	nearly inactive	only slightly less than	4.08±0.15	adhesion scores for all mice (individual animals) ([3]; scale 1 to 5, 75 millimoles/L, listed as 2′-AMP): 4 (9×) and 3 and 5 (2×)
	Nc1ncnc2c1ncn2[C@@H]1O[C@H](CO)[C@@H](OP(=O)(O)O)[C@H]1O [3′-adenosine monophosphate]	nearly inactive	only slightly less than	4.00±0.17	adhesion scores for all mice (individual animals) ([3]; scale 1 to 5, 75 millimoles/L, listed as 3′-AMP): 4 (8×) and 3 (2×) and 5 (2×)
> 75 millimoles/L	Nc1ncnc2c1ncn2[C@@H]1O[C@H](COP(=O)(O)O)[C@@H](O)[C@H]1O [5′-adenosine monophosphate]	nearly inactive	only slightly less than	3.82±0.18	adhesion scores for all mice (individual animals) ([3]; scale 1 to 5, 75 millimoles/L, listed as 5′-AMP): 4 (7×) and 3 (3×) and 5
≤ 23 millimoles/L	Nc1ncnc2c1ncn2[C@@H]1O[C@H](CO)[C@@H](O)[C@H]1O [Adenosine]				adhesion score (mean±standard error of mean) ([3]; scale 1 (least) to 5 (most), 23 millimoles/L in 0.9% saline): 3.08±0.15; adhesion scores for all mice (individual animals) ([3]; scale 1 to 5, 23 millimoles/L): 3 (9×) and 4 (2×) and 2; adhesion scores (individual animals) ([1]; 23 mM + 1,3-dipropyl-8-(p-sulfophenyl)xanthine 1 mM): 4 (3×) and 5; adhesion score (mean±standard error of mean) ([1]; 23 millimoles/L + 1,3-dipropyl-8-(p-sulfophenyl)xanthine 1 mM): 4.25±0.22; adhesion score compared with the saline group (Fisher's Least Significant Difference test) ([1]; in presence of 1,3-dipropyl-8-(p-sulfophenyl)xanthine 1 mM): did not significantly reduce
